Key:
Swiss albino mice [1] = assay: Formalin-induced hyperalgesia; type: in vivo; conditions: for number of flinching in the inflammatory phase compared to control group: 10 mg kg^–1 i.p.; for inhibition in vivo at 10 mg/kg: Mus musculus, ip, read-out: % inhibition of algesia (analgesic effect), 10 mg kg^–1 i.p. 30 min before formalin, Swiss albino mice
COX-1 = COX-1 (Homo sapiens, UniProt P23219); assay: Human whole blood COX-1 assay: calcium ionophore; type: cell-based; conditions: for effect on ionophore-stimulated TXB2 production: 1 μM, in words; for TXB2, +calcium ionophore: compound final concn 1 μM, control 2.00
COX-2 [2] = target: T1, COX-2 (Homo sapiens, UniProt P35354); assay: Human whole blood COX-2 assay: LPS-stimulated PGE2 production; type: cell-based; conditions: for effect on PGE2 production in LPS-stimulated blood: 1 μM, in words; for PGE2, +LPS: compound final concn 1 μM, control 1.98
T1 sequence (P35354 18-604): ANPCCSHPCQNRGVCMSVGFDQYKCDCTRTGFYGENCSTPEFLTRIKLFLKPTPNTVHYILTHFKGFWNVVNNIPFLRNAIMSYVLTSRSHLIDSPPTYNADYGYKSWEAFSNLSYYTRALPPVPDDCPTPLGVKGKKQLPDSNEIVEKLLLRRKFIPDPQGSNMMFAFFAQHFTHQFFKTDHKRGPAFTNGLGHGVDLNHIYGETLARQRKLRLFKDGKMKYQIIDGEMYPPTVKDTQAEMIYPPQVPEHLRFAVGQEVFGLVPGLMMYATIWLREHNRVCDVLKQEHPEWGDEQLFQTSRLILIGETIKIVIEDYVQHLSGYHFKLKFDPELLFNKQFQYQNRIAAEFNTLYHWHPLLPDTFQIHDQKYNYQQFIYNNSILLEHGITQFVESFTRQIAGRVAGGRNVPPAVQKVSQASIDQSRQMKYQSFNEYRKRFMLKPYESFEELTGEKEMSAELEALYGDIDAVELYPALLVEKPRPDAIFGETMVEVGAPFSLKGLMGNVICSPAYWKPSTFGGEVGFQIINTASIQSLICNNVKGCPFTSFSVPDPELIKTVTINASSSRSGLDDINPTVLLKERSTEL

Solubility observations = type: physicochemical; conditions: enzyme immunoassay medium, in words
Swiss albino mice [3] = assay: Carrageenan-induced paw inflammation; type: in vivo; conditions: for paw thickness compared to untreated control group: carrageenan, in words
Swiss albino mice [4] = assay: Acute oral toxicity, 14 days; type: in vivo
COX-2 [5] = target: T1, COX-2; assay: Isothermal titration calorimetry with COX-2; type: binding; conditions: phosphate buffer pH 7.4
[6] = In vivo pharmacokinetic study; set-up: species or system rat
[7] = male wistar rat, 10 mg kg^–1 i.p.
[8] = male, Wistar, rat, serum, ip, 10 mg/kg

Sequence of COX-1 (P23219 24-599): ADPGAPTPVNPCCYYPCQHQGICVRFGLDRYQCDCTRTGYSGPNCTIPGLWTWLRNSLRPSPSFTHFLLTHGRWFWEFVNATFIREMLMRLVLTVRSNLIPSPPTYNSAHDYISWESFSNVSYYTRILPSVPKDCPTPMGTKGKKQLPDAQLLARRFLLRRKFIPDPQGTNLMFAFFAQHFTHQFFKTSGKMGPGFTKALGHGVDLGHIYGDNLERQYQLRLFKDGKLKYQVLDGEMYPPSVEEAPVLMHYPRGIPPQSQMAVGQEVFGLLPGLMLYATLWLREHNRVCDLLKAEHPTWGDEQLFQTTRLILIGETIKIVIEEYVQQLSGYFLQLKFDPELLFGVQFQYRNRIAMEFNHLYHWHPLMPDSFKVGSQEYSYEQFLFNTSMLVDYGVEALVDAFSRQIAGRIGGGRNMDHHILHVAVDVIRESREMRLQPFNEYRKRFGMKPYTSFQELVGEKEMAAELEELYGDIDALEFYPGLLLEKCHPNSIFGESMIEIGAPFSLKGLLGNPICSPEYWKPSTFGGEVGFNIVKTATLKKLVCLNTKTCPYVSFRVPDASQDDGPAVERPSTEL

Compound	number of flinching in the inflammatory phase compared to control group (Swiss albino mice [1]; in words)	inhibition in vivo at 10 mg/kg (Swiss albino mice [1]) [%]	effect on ionophore-stimulated TXB2 production (COX-1)	TXB2, +calcium ionophore (COX-1) [ng/mL]	effect on PGE2 production in LPS-stimulated blood (COX-2 [2])	PGE2, +LPS (COX-2 [2]) [ng/mL]	also measured
CC1=NN(c2cccc(Cl)c2)C(=O)/C1=C\c1cn(-c2nc(Cl)nc(N3CCOCC3)n2)c2ccccc12 [Compound 18, (Z)-4-((1-(4-Chloro-6-morpholino-1,3,5-triazin-2-yl)-1H-indol-3-yl)methylene)-1-(3-chlorophenyl)-3-methyl-1H-pyrazol-5(4H)-one]	significantly decreased	59	–	–	–	–	–
CC1=NN(c2cccc(Cl)c2)C(=O)/C1=C\c1cn(-c2nc(N3CCCCC3)nc(N3CCCCC3)n2)c2ccccc12 [Compound 22, (Z)-1-(3-Chlorophenyl)-4-((1-(4,6-di(piperidin-1-yl)-1,3,5-triazin-2-yl)-1H-indol-3-yl)methylene)-3-methyl-1H-pyrazol-5(4H)-one]	significantly decreased	61.9	–	–	–	–	–
O=Cc1cn(-c2nc(N3CCOCC3)nc(N3CCOCC3)n2)c2ccccc12 [Compound 2, 1-(4,6-Dimorpholino-1,3,5-triazin-2-yl)-1H-indole-3-carbaldehyde]	significantly decreased	57.4	–	–	–	–	–
O=C1Nc2ccccc2/C1=C/c1cn(-c2nc(N3CCOCC3)nc(N3CCOCC3)n2)c2ccccc12 [Compound 4, (Z)-3-((1-(4,6-Dimorpholino-1,3,5-triazin-2-yl)-1H-indol-3-yl)methylene)indolin-2-one]	significantly decreased	61.3	–	–	–	–	–
O=C(O)Cc1ccccc1Nc1c(Cl)cccc1Cl [Diclofenac, reference compound]	significantly decreased	–	–	–	–	–	–
CC1=NN(c2cccc(Cl)c2)C(=O)/C1=C\c1cn(-c2nc(N3CCCC3)nc(N3CCOCC3)n2)c2ccccc12 [Compound 17, (Z)-1-(3-Chlorophenyl)-3-methyl-4-((1-(4-morpholino-6-(pyrrolidin-1-yl)-1,3,5-triazin-2-yl)-1H-indol-3-yl)methylene)-1H-pyrazol-5(4H)-one]	significantly decreased	–	did not affect	1.70	significantly decreased	1.00	–
O=C1Nc2ccccc2/C1=C/c1cn(-c2nc(N3CCCCC3)nc(N3CCOCC3)n2)c2ccccc12 [Compound 10, (Z)-3-((1-(4-Morpholino-6-(piperidin-1-yl)-1,3,5-triazin-2-yl)-1H-indol-3-yl)methylene)indolin-2-one]	significantly decreased	54.9	did not affect	1.55	significantly decreased	1.02	–
CN1C(=O)C(=Cc2cn(-c3nc(N4CCOCC4)nc(N4CCOCC4)n3)c3ccccc23)C(=O)N(C)C1=O [Compound 5, 1,3-Dimethyl-5-((1-(4,6-dimorpholino-1,3,5-triazin-2-yl)-1H-indol-3-yl)methylene)pyrimidine-2,4,6(1,3,5H)-trione]	–	–	–	–	–	–	solubility in the assay medium (Solubility observations): poor solubility
O=C1/C(=C\c2cn(-c3nc(N4CCOCC4)nc(N4CCOCC4)n3)c3ccccc23)c2ccccc2N1c1c(Cl)cccc1Cl [Compound 3, (Z)-1-(2,6-Dichlorophenyl)-3-((1-(4,6-dimorpholino-1,3,5-triazin-2-yl)1H-indolyl)methylene)indolin-2-one]	significantly decreased	55.6	–	–	–	–	–
CC1=NN(c2cccc(Cl)c2)C(=O)/C1=C\c1cn(-c2nc(N3CCCCC3)nc(N3CCOCC3)n2)c2ccccc12 [Compound 12, (Z)-1-(3-Chlorophenyl)-3-methyl-4-((1-(4-morpholino-6-(piperidin-1-yl)-1,3,5-triazin-2-yl)-1H-indol-3-yl)methylene)-1H-pyrazol-5(4H)-one]	significantly decreased	74.2	did not affect	1.75	significantly decreased	0.95	paw thickness compared to untreated control group (Swiss albino mice [3]): decrease the paw thickness significantly
COc1ccc2c(c1)c(CC(=O)O)c(C)n2C(=O)c1ccc(Cl)cc1 [Indomethacin, reference compound]	–	–	–	–	–	–	decrease in paw thickness (Swiss albino mice [3]; 30 min after carrageenan): 30%; decrease in paw thickness (Swiss albino mice [3]; 60 min after carrageenan): 25%; paw thickness compared to untreated control group (Swiss albino mice [3]): decrease the paw thickness significantly
CC1=NN(c2cccc(Cl)c2)C(=O)/C1=C\c1cn(-c2nc(N3CCOCC3)nc(N3CCOCC3)n2)c2ccccc12 [Compound 6, (4Z)-1-(3-Chlorophenyl)-3-methyl-4-((1-(4,6-dimorpholino-1,3,5-triazin-2-yl)-1H-indol-3-yl)methylene)-1H-pyrazol-5(4H)-one]	significantly decreased	–	did not affect	1.85	significantly decreased	0.91	decrease in paw thickness (Swiss albino mice [3]; 30 min after carrageenan): 18%; decrease in paw thickness (Swiss albino mice [3]; 60 min after carrageenan): 14%; paw thickness compared to untreated control group (Swiss albino mice [3]): decrease the paw thickness significantly; mortality or gross behavioral impairment (Swiss albino mice [4]; 50, 300 and 2000 mg kg^–1, after the 14th day): no mortality or any gross behavioral impairment; maximum tolerable dose (Swiss albino mice [4]; Swiss albino mice): > 2000 mg kg^–1; tissue histology (liver, kidney, myocardium) (Swiss albino mice [4]; after 14 days, H and E staining): no significant lesions except for some degree of congestion; toxicity (Swiss albino mice [4]; dose of 2000 mg kg^–1): did not exhibit toxicity; analgesic effect on A23187 pretreatment (Swiss albino mice [1]; TXA2 stimulator A23187, in words): did not alter; analgesic effect on pretreatment with L-arginine or L-NAME (Swiss albino mice [1]; given 30 min before compound, in words): did not alter; analgesic effect on pretreatment with substance P (Swiss albino mice [1]; substance P 30 min before compound, in words): significantly attenuated; ΔH COX-2 (ITC) (COX-2 [5]): -9.685 kcal/mol; Cl/F_obs [6, 7]: 0.0008011 (mg)/(μg/mL)/min; Vz/F_obs [6, 7]: 0.3796 (mg)/(μg/mL); Cmax [6, 8]: 58.5 µg/mL; MRT inf [6, 8]: 8.16 h; Tmax [6, 8]: 3 h; k el [6, 8]: 3.52e-05 s⁻¹; half-life ([6]; male, Wistar, rat, serum, ip, 10 mg/kg, half-life, male wistar rat, 10 mg kg^–1 i.p.): 5.5 h; half-life ([6]; male, Wistar, rat, serum, ip, 10 mg/kg, t1/2, male wistar rat, 10 mg kg^–1 i.p.): 5.47 h

Reference: paper PMC6044720 (ACS Omega, 2018)
